Reference: US10160755B2 (Plexxikon Inc., priority 2015, dated 2018)

Target: T1, BA/F3-FLT3-ITD + F691L cells (Homo sapiens, UniProt P36888, F691L, cells depend on it, form not given)
T1 sequence (P36888 1-993 F691L): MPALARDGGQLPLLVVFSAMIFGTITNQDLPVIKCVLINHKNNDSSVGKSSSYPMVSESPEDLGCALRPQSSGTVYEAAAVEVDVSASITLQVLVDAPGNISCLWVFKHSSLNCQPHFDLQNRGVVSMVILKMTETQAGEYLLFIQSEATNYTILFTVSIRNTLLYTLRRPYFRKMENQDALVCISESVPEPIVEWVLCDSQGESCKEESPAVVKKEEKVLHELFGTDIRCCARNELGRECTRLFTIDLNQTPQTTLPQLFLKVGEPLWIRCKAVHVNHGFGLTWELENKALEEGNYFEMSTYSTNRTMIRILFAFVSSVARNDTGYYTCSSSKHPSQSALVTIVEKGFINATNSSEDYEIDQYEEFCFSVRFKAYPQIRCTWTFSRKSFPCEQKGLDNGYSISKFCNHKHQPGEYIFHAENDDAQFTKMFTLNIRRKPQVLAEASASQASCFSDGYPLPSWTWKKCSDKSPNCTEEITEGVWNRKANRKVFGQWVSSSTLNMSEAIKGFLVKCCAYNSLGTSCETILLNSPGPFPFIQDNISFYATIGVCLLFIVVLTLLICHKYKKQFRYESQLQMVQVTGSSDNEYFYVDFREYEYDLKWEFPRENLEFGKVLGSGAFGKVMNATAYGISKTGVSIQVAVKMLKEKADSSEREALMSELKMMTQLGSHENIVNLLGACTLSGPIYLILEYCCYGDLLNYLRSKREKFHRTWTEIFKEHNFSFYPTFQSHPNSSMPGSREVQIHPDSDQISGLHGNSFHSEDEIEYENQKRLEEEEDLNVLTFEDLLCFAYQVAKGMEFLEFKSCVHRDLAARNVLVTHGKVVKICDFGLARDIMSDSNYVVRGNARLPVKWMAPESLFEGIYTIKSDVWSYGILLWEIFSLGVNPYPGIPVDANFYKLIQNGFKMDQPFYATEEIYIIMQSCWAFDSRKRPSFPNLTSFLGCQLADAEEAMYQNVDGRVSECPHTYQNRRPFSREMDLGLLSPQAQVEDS
Assay: BA/F3-FLT3-ITD + F691L cell proliferation assay (CellTiter-Glo)
Format: cell-based, murine
Conditions: BaF3 FLT3 ITD/F691L cells; read-out: Cell Activity (IC50 μM) BaF3_FLT3_ITD/F691L
In short: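 Murine BA/F3 cells transfected with full-length FLT3 carrying ITD plus D835Y or F691L, grown without IL-3 so growth depends on FLT3. Seeded at 1×10^4 cells/well and dosed with 8 points, 10 to 0.0046 μM, 0.2% DMSO, for three days at 37 °C. IC50 from CellTiter-Glo luminescence (ATP content).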

Structure (SMILES) | GI50 [µM]
CCN1CCN(c2cccc(-c3cnc4[nH]cc(-c5ccc6ncn(C7CCCNC7)c6c5)c4n3)c2)CC1 (stereo not drawn) [P-329, 2-[3-(4-ethylpiperazin-1-yl)phenyl]-7-[3-(3-piperidyl)benzimidazol-5-yl]-5H-pyrrolo[2,3-b]pyrazine] | 0.0001 to 1
CC(C)(C)n1cnc2ccc(-c3c[nH]c4ncc(-c5ccnc(N6CCCS6(=O)=O)c5)nc34)cc21 [P-294, 2-[4-[7-(3-tert-butylbenzimidazol-5-yl)-5H-pyrrolo[2,3-b]pyrazin-2-yl]-2-pyridyl]-1,2-thiazolidine 1,1-dioxide] | 0.0001 to 1
CC(C)(C)n1cnc2ccc(-c3c[nH]c4ncc(-c5ccnc(N6CCCCS6(=O)=O)c5)nc34)cc21 [P-309, 2-[4-[7-(3-tert-butylbenzimidazol-5-yl)-5H-pyrrolo[2,3-b]pyrazin-2-yl]-2-pyridyl]thiazinane 1,1-dioxide] | 0.0001 to 1
Cc1cc(C#Cc2cnc3[nH]cc(-c4ccc5ncn(C6CCCNC6)c5c4)c3n2)cc(C)n1 (stereo not drawn) [P-283, 2-[2-(2,6-dimethyl-4-pyridyl)ethynyl]-7-[3-(3-piperidyl)benzimidazol-5-yl]-5H-pyrrolo[2,3-b]pyrazine] | 0.0001 to 1
CC(C)(C)n1cnc2ccc(-c3c[nH]c4ncc(-c5cccc(N6CCCS6(=O)=O)c5)cc34)cc21 [P-278, 2-[3-[3-(3-tert-butylbenzimidazol-5-yl)-1H-pyrrolo[2,3-b]pyridin-5-yl]phenyl]-1,2-thiazolidine 1,1-dioxide] | 0.0001 to 1
Cc1ncc(C#Cc2cnc3[nH]cc(-c4ccc5ncn(C6CCCNC6)c5c4)c3n2)cn1 (stereo not drawn) [P-285, 2-[2-(2-methylpyrimidin-5-yl)ethynyl]-7-[3-(3-piperidyl)benzimidazol-5-yl]-5H-pyrrolo[2,3-b]pyrazine] | 0.0001 to 1
O=S1(=O)CCCN1c1cc(-c2cnc3[nH]cc(-c4ccc5ncn(C6CCCNC6)c5c4)c3n2)ccn1 (stereo not drawn) [P-295, 2-[4-[7-[3-(3-piperidyl)benzimidazol-5-yl]-5H-pyrrolo[2,3-b]pyrazin-2-yl]-2-pyridyl]-1,2-thiazolidine 1,1-dioxide] | 0.0001 to 1
COc1cnc2[nH]cc(-c3ccc4ncn(-c5ccccc5)c4c3)c2c1 [P-068, 5-methoxy-3-(3-phenylbenzimidazol-5-yl)-1H-pyrrolo[2,3-b]pyridine] | 0.0001 to 1
CC(C)(C)n1cnc2ccc(-c3n[nH]c4ncc(-c5cccc(N6CCCS6(=O)=O)c5)cc34)cc21 [P-296, 2-[3-[3-(3-tert-butylbenzimidazol-5-yl)-1H-pyrazolo[3,4-b]pyridin-5-yl]phenyl]-1,2-thiazolidine 1,1-dioxide] | 0.0001 to 1
CC(C)(C)n1cnc2ccc(-c3c[nH]c4ncc(-c5ccnc(C#N)c5)nc34)cc21 [P-301, 4-[7-(3-tert-butylbenzimidazol-5-yl)-5H-pyrrolo[2,3-b]pyrazin-2-yl]pyridine-2-carbonitrile] | 0.0001 to 1
Cn1cnc2ccc(-c3c[nH]c4nnc(Cl)cc34)cc21 [P-313, 3-chloro-5-(3-methylbenzimidazol-5-yl)-7H-pyrrolo[2,3-c]pyridazine] | 0.0001 to 1
c1cc(-c2cnc3[nH]cc(-c4ccc5ncn(C6CCCNC6)c5c4)c3c2)cc(N2CCOCC2)c1 (stereo not drawn) [P-317, 4-[3-[3-[3-(3-piperidyl)benzimidazol-5-yl]-1H-pyrrolo[2,3-b]pyridin-5-yl]phenyl]morpholine] | 0.0001 to 1
c1nc(N2CCOCC2)ncc1-c1cnc2[nH]cc(-c3ccc4ncn(C5CCCNC5)c4c3)c2c1 (stereo not drawn) [P-277, 4-[5-[3-[3-(3-piperidyl)benzimidazol-5-yl]-1H-pyrrolo[2,3-b]pyridin-5-yl]pyrimidin-2-yl]morpholine] | 0.0001 to 1
CC(C)(C)n1cnc2ccc(-c3c[nH]c4ncc(-c5cccc(N6CCCCC6)c5)nc34)cc21 [P-336, 7-(3-tert-butylbenzimidazol-5-yl)-2-[3-(1-piperidyl)phenyl]-5H-pyrrolo[2,3-b]pyrazine] | 0.0001 to 1
CCN1CCN(c2cc(-c3cnc4[nH]cc(-c5ccc6ncn(C7CCCNC7)c6c5)c4n3)ccn2)CC1 (stereo not drawn) [P-327, 2-[2-(4-ethylpiperazin-1-yl)-4-pyridyl]-7-[3-(3-piperidyl)benzimidazol-5-yl]-5H-pyrrolo[2,3-b]pyrazine] | 0.0001 to 1
FC(F)n1cc(-c2cnc3[nH]cc(-c4ccc5ncn(C6CCCNC6)c5c4)c3c2)cn1 (stereo not drawn) [P-274, 5-[1-(difluoromethyl)pyrazol-4-yl]-3-[3-(3-piperidyl)benzimidazol-5-yl]-1H-pyrrolo[2,3-b]pyridine] | 0.0001 to 1
CN1CCN(c2cccc(-c3cnc4[nH]cc(-c5ccc6ncn(C7CCCNC7)c6c5)c4n3)c2)CC1 (stereo not drawn) [P-332, 2-[3-(4-methylpiperazin-1-yl)phenyl]-7-[3-(3-piperidyl)benzimidazol-5-yl]-5H-pyrrolo[2,3-b]pyrazine] | 0.0001 to 1
CC(C)(C)n1cnc2ccc(-c3c[nH]c4ncc(-c5ccc(C#N)nc5)cc34)cc21 [P-290, 5-[3-(3-tert-butylbenzimidazol-5-yl)-1H-pyrrolo[2,3-b]pyridin-5-yl]pyridine-2-carbonitrile] | 0.0001 to 1
O=S1(=O)CCCN1c1ccc(-c2cnc3[nH]cc(-c4ccc5ncn(C6CCCNC6)c5c4)c3c2)cc1 (stereo not drawn) [P-319, 2-[4-[3-[3-(3-piperidyl)benzimidazol-5-yl]-1H-pyrrolo[2,3-b]pyridin-5-yl]phenyl]-1,2-thiazolidine 1,1-dioxide] | 0.0001 to 1

More lines, now with the values ahead:

GI50 [µM] | Structure (SMILES)
0.0001 to 1 | COc1ncc(-c2cnc3[nH]cc(-c4ccc5ncn(C(C)(C)C)c5c4)c3n2)cc1C#N [P-405, 5-[7-(3-tert-butylbenzimidazol-5-yl)-5H-pyrrolo[2,3-b]pyrazin-2-yl]-2-methoxy-pyridine-3-carbonitrile]
0.0001 to 1 | CC(C)(C)n1cnc2ccc(-c3c[nH]c4ncc(-c5cnc(F)c(F)c5)nc34)cc21 [P-390, 7-(3-tert-butylbenzimidazol-5-yl)-2-(5,6-difluoro-3-pyridyl)-5H-pyrrolo[2,3-b]pyrazine]
0.0001 to 1 | CC(C)(C)n1cnc2ccc(-c3c[nH]c4ncc(-c5ccc(N6CCC(F)(F)CC6)nc5)nc34)cc21 [P-356, 7-(3-tert-butylbenzimidazol-5-yl)-2-[6-(4,4-difluoro-1-piperidyl)-3-pyridyl]-5H-pyrrolo[2,3-b]pyrazine]
0.0001 to 1 | Cc1ccc(-c2cnc3[nH]cc(-c4ccc5ncn(C(C)(C)C)c5c4)c3n2)cn1 [P-388, 7-(3-tert-butylbenzimidazol-5-yl)-2-(6-methyl-3-pyridyl)-5H-pyrrolo[2,3-b]pyrazine]
0.0001 to 1 | CCN1CCN(c2ccc(-c3cnc4[nH]cc(-c5ccc6ncn(C(C)(C)C)c6c5)c4n3)cn2)CC1 [P-365, 7-(3-tert-butylbenzimidazol-5-yl)-2-[6-(4-ethylpiperazin-1-yl)-3-pyridyl]-5H-pyrrolo[2,3-b]pyrazine]
0.0001 to 1 | Cc1ncc(C#Cc2cnc3[nH]cc(-c4ccc5ncn(C(C)(C)C)c5c4)c3c2)cn1 [P-383, 1-tert-butyl-6-[5-[2-(2-methylpyrimidin-5-yl)ethynyl]-1H-pyrrolo[2,3-b]pyridin-3-yl]benzimidazole]
0.0001 to 1 | c1cc(-c2cnc3[nH]cc(-c4ccc5ncn(C6CCCNC6)c5c4)c3n2)cc(N2CCCCC2)c1 (stereo not drawn) [P-337, 7-[3-(3-piperidyl)benzimidazol-5-yl]-2-[3-(1-piperidyl)phenyl]-5H-pyrrolo[2,3-b]pyrazine]
0.0001 to 1 | CC(C)(C)n1cnc2ccc(-c3c[nH]c4ncc(-c5cnc(N6CCC(F)(F)CC6)nc5)nc34)cc21 [P-357, 7-(3-tert-butylbenzimidazol-5-yl)-2-[2-(4,4-difluoro-1-piperidyl)pyrimidin-5-yl]-5H-pyrrolo[2,3-b]pyrazine]
0.0001 to 1 | CCN1CCN(c2ccc(-c3cnc4[nH]cc(-c5ccc6ncn(C7CCCNC7)c6c5)c4n3)cc2)CC1 (stereo not drawn) [P-359, 2-[4-(4-ethylpiperazin-1-yl)phenyl]-7-[3-(3-piperidyl)benzimidazol-5-yl]-5H-pyrrolo[2,3-b]pyrazine]
0.0001 to 1 | CC(C)(C)n1cnc2ccc(-c3c[nH]c4ncc(-c5cnc(O)nc5)nc34)cc21 [P-363, 5-[7-(3-tert-butylbenzimidazol-5-yl)-5H-pyrrolo[2,3-b]pyrazin-2-yl]pyrimidin-2-ol]
0.0001 to 1 | CC(C)(O)c1ncc(-c2cnc3[nH]cc(-c4ccc5ncn(C(C)(C)C)c5c4)c3n2)cn1 [P-380, 2-[5-[7-(3-tert-butylbenzimidazol-5-yl)-5H-pyrrolo[2,3-b]pyrazin-2-yl]pyrimidin-2-yl]propan-2-ol]
